Measurements taken from publication PMC8569681, “New Pyrimidine and Pyridine Derivatives as Multitarget Cholinesterase Inhibitors: Design, Synthesis, and In Vitro and In Cellulo Evaluation” (ACS Chemical Neuroscience, 2021).
Entries after “also recorded” stand apart in the source; their conditions may differ. Where two headings read alike, the source gives them in different places.

Experiments:
Assay type in all cases: biochemical
[1] = molecular target: T1, Electrophorus electricus AChE (EeAChE) (Electrophorus electricus, UniProt O42275); experiment: Percent inhibition of EeAChE, Ellman's spectrophotometric method; conditions: for inhibition at 90 µM: read-out: % inhibition vs EeAChE ± SD (90 uM), 90 uM; for inhibition at 900 µM: read-out: % inhibition vs EeAChE ± SD (900 uM), 900 uM; for inhibition at 0.9 µM: read-out: % inhibition vs EeAChE ± SD, [I] 900 nM; for inhibition at 0.09 µM: read-out: % inhibition vs EeAChE ± SD, [I] 90 nM
T1 construct: purchased Sigma-Aldrich (Milan, Italy)
Experimental: All other chemical and biological reagents and solvents used were of the highest analytical, commercially available grade. The water, utilized for the preparation of the phosphate buffer and of the compound solutions, was distilled and filtered on nylon membrane filters with a 0.2 μm pore size with the Millipore Filtration apparatus before each use. Micropipettes Labmate (BRAND Dig. 10–100 μL; Dig. 100–1000 μL; Dig. 0.1–2 μL) and Transferpette (HIGH TECH LAB LM200: 20–200 μL; LM5000: 1000–5000 μL) were used to collect the samples. The assays were carried out by a double beam UV–vis Lambda 40 Perkin Elmer spectrophotometer using optical polystyrene cuvettes (10 × 10 × 45 mm, 340–800 nm optical transparency); each measure was repeated at least in triplicate. […] The spectrophotometric method of Ellman[25] with minor modifications was used to evaluate the inhibition of ChEs. […] EeAChE and eqBChE were periodically tested to evaluate the effective enzymatic activity.
For all the synthesized compounds, the percentages of inhibition toward AChE of Electrophorus electricus (EeAChE) and equine BChE (eqBChE) were evaluated.
Three milliliters of a solution in 0.1 M phosphate buffer (pH = 7.4) containing DTNB (0.25 mM) and EeAChE (0.083 UmL^–1) or eqBChE (0.083 UmL^–1) was placed in a polystyrene cuvette of 1.0 cm path length; 1 μL of a […] With this solution, the blank was made. […] Each experiment was repeated at least in triplicate.

[2] = molecular target: T1, Electrophorus electricus AChE (EeAChE); experiment: Inhibition constant and mechanism vs EeAChE, Dixon's method; conditions: for inhibition mechanism on EeAChE: Dixon's plot, best fitting model; for α, EeAChE: mixed inhibition, α > 1 free enzyme, α < 1 enzyme–substrate complex; for Ki: three substrate and five inhibitor concentrations, read-out: Ki ± SD, EeAChE
Experimental: (§1) . The recorded data were analyzed with the enzyme kinetic module of SigmaPlot to find the best fitting model of inhibition using the linear regression analysis. The reference kinetic models used in the regression analysis were competitive, noncompetitive, uncompetitive, and mixed. Each determination was repeated five times, and incorrect values were discarded to reduce the standard deviation within the limit of 5%. In this way, the regression lines obtained have a linear regression coefficient (R^2) higher than 0.95. Dixon’s plots of all tested compounds are reported in the Supporting Information (Figures S1–S12).
(§2) 18, 22, 25, 26, 28, and 30 toward eqBChE). For each compound, a 500 μM stock solution was prepared in H2O/DMSO or in 10^–2 M HCl and diluted in water to prepare solutions of opportune concentrations to introduce in the cuvette volumes ranging from 30 to 100 μL, to obtain the desired final concentrations. The maximum amount of DMSO used for the preparation of the stock solution was calculated to have a DMSO content in cuvette <0.033%.
(§3) Three milliliters of 0.1 M phosphate buffer (pH = 7.4) containing DTNB (0.25 mM) and EeAChE (0.083 UmL^–1) or eqBChE (0.083 UmL^–1) was mixed with the opportune volume of the inhibitor solution to obtain a final inhibitor concentration in cuvette between 90 and 1800 nM. With this solution, the blank was made. […]. The absorbance variations were measured at 412 nm at 25 °C between 0.5 and 1.5 min.
(§4) To determine the inhibition constants (Ki) and the inhibition mechanisms, the rates of hydrolysis at three different concentrations of substrate in the presence of five different concentrations of inhibitor were measured.

[3] = molecular target: T2, equine BChE (eqBChE) (Equus caballus, UniProt P81908); experiment: Inhibition constant and mechanism vs eqBChE, Dixon's method; conditions: for inhibition mechanism on eqBChE: Dixon's plot, best fitting model; for α, eqBChE: mixed inhibition, α > 1 free enzyme, α < 1 enzyme–substrate complex; for Ki: three substrate and five inhibitor concentrations, read-out: Ki ± SD, eqBChE
T2 construct: purchased Sigma-Aldrich (Milan, Italy)
Experimental: as §1, §2, §3, §4

[4] = read-out: % inhibition vs EeAChE ± SD (9 uM), 9 uM, supplement csv
[5] = 0.0833 U/mL enzyme, 100 μM acetylthiocholine
[6] = read-out: % inhibition vs EeAChE ± SD, [I] 9 μM, 0.0833 U/mL enzyme, 100 μM acetylthiocholine

T1 sequence (O42275 24-633): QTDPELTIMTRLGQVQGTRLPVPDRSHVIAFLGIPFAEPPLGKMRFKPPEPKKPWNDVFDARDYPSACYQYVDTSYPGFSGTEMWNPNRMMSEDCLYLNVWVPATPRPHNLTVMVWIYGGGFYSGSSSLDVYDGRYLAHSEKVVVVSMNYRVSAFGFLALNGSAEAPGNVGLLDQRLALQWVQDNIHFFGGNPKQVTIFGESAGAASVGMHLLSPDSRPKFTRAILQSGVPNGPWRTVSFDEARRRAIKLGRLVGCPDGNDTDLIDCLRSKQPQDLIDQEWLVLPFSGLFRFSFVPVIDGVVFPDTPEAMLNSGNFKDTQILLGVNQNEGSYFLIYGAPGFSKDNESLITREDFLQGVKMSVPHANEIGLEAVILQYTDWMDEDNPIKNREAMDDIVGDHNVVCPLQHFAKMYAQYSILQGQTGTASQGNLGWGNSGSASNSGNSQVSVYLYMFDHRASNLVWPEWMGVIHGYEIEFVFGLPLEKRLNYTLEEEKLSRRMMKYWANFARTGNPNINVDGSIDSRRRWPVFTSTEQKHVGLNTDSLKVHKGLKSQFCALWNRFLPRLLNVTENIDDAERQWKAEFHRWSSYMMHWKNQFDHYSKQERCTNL
T2 sequence (P81908 whole entry): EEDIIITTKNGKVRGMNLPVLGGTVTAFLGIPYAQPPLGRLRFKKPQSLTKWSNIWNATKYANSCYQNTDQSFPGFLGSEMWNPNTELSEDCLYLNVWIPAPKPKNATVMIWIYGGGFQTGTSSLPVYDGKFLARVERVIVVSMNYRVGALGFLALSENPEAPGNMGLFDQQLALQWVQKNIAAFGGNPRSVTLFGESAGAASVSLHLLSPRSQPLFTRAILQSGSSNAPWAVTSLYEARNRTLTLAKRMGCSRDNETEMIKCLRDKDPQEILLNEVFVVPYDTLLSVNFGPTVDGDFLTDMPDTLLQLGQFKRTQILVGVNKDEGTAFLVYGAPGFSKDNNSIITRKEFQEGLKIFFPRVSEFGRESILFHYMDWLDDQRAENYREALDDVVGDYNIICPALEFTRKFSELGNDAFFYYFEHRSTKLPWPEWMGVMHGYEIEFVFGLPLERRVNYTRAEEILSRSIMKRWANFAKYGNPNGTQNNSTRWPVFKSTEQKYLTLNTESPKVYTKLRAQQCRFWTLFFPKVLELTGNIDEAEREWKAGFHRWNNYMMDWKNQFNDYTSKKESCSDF

| SMILES | inhibition at 9 µM [1, 4] | inhibition at 90 µM ([1]; supplement csv) | inhibition at 900 µM ([1]; supplement csv) | inhibition at 0.9 µM [1, 5] | inhibition at 9 µM [1, 6] | inhibition mechanism on EeAChE [2] | α, EeAChE [2] | Ki [2] | inhibition at 0.09 µM [1, 5] | inhibition mechanism on eqBChE [3] | α, eqBChE [3] | Ki [3] |
| --- | --- | --- | --- | --- | --- | --- | --- | --- | --- | --- | --- | --- |
| c1ccc(CNCCCCCNc2ccccn2)cc1 [Compound 23, N^1-Benzyl-N^5-(pyridin-2-yl)pentane-1,5-diamine] | 53.5 ± 1.4% | 56.5 ± 3% | 10.3 ± 0.8% | 10.3 ± 0.8% | 53.5 ± 1.4% | mixed | 2.2 | 743 ± 316 nM |  |  |  |  |
| c1ccc(CNCCCCCCNc2ncccn2)cc1 [Compound 13, N^1-Benzyl-N^6-(pyrimidin-2-yl)hexane-1,6-diamine] | 92.9 ± 0.4% | 19.2 ± 1.4% | 60.3 ± 1.5% |  | ~90% | mixed | 0.3 | 426 ± 132 nM | 19.2 ± 1.4% |  |  |  |
| c1cnc(NCCCCCCNCc2c[nH]c3ccccc23)nc1 [Compound 22, N^1-((1H-Indol-3-yl)methyl)-N^6-(pyrimidin-2-yl)hexane-1,6-diamine] | 69.2 ± 1.4% |  | 16.4 ± 1.9% | 16.4 ± 1.9% | 60 to 70% |  |  |  |  | mixed | 10 | 99 ± 71 nM |
| COc1cc(CNCCCCCCNc2ncccn2)ccc1O [Compound 18, 2-Methoxy-4-(((6-(pyrimidin-2-ylamino)hexyl)amino)methyl)phenol] | 59.5 ± 3.6% |  | 14.7 ± 0.5% | 14.7 ± 0.5% | 60 to 70% |  |  |  |  | mixed | 7.3 | 3030 ± 604 nM |
| c1ccc(CNCCCCCNc2ncccn2)cc1 [Compound 9, N^1-Benzyl-N^5-(pyrimidin-2-yl)pentane-1,5-diamine] | 90.2 ± 0.7% | 14.1 ± 1.4% | 57.1 ± 0.9% | 40 to 60% | ~90% | mixed | 7.5 | 312 ± 108 nM | 14.1 ± 1.4% |  |  |  |
| COc1cc(CNCCCCCCNc2ccccn2)ccc1O [Compound 30, 2-Methoxy-4-(((6-(pyridin-2-ylamino)hexyl)amino)methyl)phenol] | 61.8 ± 1.9% | 90.9 ± 0.6% | 17.3 ± 0.6% | 17.3 ± 0.6% | ~60% |  |  |  |  | mixed | 1.4 | 1100 ± 189 nM |
| COc1ccccc1CNCCCCCCNc1ccccn1 [Compound 28, N^1-(2-Methoxybenzyl)-N^6-(pyridin-2-yl)hexane-1,6-diamine] | 58.6 ± 1.1% | 74.3 ± 1.4% | 9 ± 1.6% | 9 ± 1.6% | ~60% | mixed | 1.2 | 1320 ± 622 nM |  | mixed | 0.8 | 3430 ± 701 nM |
| Oc1cccc(CNCCCCCCNc2ncccn2)c1 [Compound 19, 3-(((6-(Pyrimidin-2-ylamino)hexyl)amino)methyl)phenol] | 84.4 ± 0.3% |  | 39 ± 1.9% | 40 to 60% | ~90% | uncompetitive; also recorded: uncomp |  | 509 ± 18 nM |  |  |  |  |
| Oc1cccc(CNCCCCCCNc2ncccn2)c1O [Compound 20, 3-(((6-(Pyrimidin-2-ylamino)hexyl)amino)methyl)benzene-1,2-diol] | 90.5 ± 0.5% | 12.8 ± 1.9% | 53.6 ± 3.1% | 40 to 60% | ~90% |  |  |  | 12.8 ± 1.9% |  |  |  |
| c1ccc(CNCCCCCCNc2ccccn2)cc1 [Compound 25, N^1-Benzyl-N^6-(pyridin-2-yl)hexane-1,6-diamine] | 73.3 ± 0.1% | 71.6 ± 2.1% | 23.1 ± 5.7% | 23.1 ± 5.7% | 73% | mixed | 0.8 | 995 ± 374 nM |  | mixed | 2.2 | 2370 ± 304 nM |
| Brc1ccc(CNCCCCCCNc2ccccn2)cc1 [Compound 26, N^1-(4-Bromobenzyl)-N^6-(pyridin-2-yl)hexane-1,6-diamine] | 23.5 ± 2.2% | 76.8 ± 0.5% |  |  | 24 to 30% |  |  |  |  | mixed | 0.5 | 3460 ± 1480 nM |
